This is an account of results in paper PMC7076388 (Pharmaceutics, 2020).

The structures appear in SMILES notation. pIC50: −log10 of the molar value. Entries after “also recorded” stand apart in the source; their conditions may differ.

The target in one assay is T1, COX-2 (Homo sapiens, UniProt P35354).
T1 construct: purchased Cayman Chemical
T1 sequence (P35354 18-604): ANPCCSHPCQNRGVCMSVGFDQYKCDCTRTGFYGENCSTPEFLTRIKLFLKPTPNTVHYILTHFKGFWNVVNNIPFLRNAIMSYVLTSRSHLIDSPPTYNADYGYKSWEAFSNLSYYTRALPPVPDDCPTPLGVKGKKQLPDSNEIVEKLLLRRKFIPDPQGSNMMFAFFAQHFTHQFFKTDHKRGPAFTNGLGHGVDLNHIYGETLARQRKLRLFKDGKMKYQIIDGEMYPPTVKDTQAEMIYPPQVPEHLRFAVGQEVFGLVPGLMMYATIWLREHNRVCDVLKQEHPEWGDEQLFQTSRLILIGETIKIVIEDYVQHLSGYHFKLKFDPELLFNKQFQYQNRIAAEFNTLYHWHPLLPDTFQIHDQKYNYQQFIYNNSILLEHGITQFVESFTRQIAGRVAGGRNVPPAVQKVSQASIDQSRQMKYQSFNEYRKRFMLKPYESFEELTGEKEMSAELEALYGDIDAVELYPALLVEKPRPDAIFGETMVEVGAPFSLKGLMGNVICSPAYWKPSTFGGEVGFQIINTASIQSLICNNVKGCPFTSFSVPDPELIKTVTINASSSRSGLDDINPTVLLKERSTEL
Also noted: method as in PMID 30987203. As to conditions: 25 µM; low selectivity towards COX-2; cited from earlier work.

Assay [1] concerns the target T2, LOX from glycine max (soybean) (Glycine max, UniProt P08170).
T2 construct: purchased Sigma-Aldrich
T2 sequence (P08170 1-839): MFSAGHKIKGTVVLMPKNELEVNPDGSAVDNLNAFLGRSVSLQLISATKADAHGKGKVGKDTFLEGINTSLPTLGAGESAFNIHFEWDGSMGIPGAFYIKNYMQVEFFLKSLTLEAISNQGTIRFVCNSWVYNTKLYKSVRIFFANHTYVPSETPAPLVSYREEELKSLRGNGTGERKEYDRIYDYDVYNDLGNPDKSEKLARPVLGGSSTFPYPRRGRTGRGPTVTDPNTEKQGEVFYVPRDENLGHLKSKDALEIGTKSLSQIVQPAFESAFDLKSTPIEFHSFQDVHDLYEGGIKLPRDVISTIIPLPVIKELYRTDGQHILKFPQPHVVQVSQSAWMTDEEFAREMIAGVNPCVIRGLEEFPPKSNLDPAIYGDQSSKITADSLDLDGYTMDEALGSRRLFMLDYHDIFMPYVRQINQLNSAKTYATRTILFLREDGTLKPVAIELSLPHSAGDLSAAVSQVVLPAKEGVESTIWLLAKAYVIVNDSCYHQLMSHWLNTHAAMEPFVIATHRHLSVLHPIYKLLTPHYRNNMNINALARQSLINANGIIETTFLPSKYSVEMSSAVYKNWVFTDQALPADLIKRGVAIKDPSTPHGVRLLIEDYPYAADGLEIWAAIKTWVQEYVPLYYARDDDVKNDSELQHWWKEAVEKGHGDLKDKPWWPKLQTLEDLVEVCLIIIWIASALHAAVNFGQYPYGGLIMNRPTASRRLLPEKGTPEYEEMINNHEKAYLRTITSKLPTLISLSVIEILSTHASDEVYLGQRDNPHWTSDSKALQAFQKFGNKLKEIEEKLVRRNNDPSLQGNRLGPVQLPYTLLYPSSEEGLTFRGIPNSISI
On the set-up: method as in PMID 30987203. Particulars: 100 µM; cited from earlier work.

Assay [2] deals with T2, LOX from glycine max (soybean). The assay is described as follows: Lipoxygenase glycine max (soybean) assay. The class given is biochemical. As to conditions: dose-response assay; read-out: IC50 for LOX inhibition. On the procedure: The inhibitory effect on LOX was assessed in 96-well plates, using a modified version of a previously reported procedure from Pereira et al.. […] After 5 min pre-incubation at room temperature, the reaction was started by addition of linoleic acid substrate (20 µL of a 4.18 mM solution in ethanol). The reaction was monitored at 234 nm using a multiplate reader (Multiskan Thermo Fisher Scientific Oy, Vantaa, Finland), for 3 min.

Assay [3] deals with 20S proteasome isolated from erythrocytes (Homo sapiens, UniProt P28074). In words: 20S proteasome inhibition (chymotrypsin-like activity). The class given is biochemical. Also noted: purified 20S proteasome isolated from erythrocytes (Enzo Life Sciences); purchased Enzo Life Sciences; host or cells: erythrocytes. Here is the method:
Proteasome activity was measured by adapting a method described by Silva et al.. The substrate used to study chymotrypsin-like enzyme activity was Suc-Leu-Leu-Val-Tyr-AMC and the enzyme used was purified 20S proteasome isolated from erythrocytes (Enzo Life Sciences). […] The plate was incubated at 37 °C in the dark for 2 h. […] Lactacystin was used as positive control.

The term pIC50 denotes −log10 of the IC50, conventionally taken in molar units. By remaining activity is commonly meant the activity still measured, relative to the control. As for `COc1ccc2cc(C(C)C(=O)NC(Cc3ccc(O)cc3)C(=O)NC(=Cc3ccccc3)C(=O)O)ccc2c1` [Compound 1, Npx-L-Tyr-Z-ΔPhe-OH], the “COX inhibition level (COX-2)” value at COX-2 is “modest levels of COX inhibition”. Besides, the “LOX inhibition at single concentration” value in assay [1] is given as “significantly inhibit the LOX enzyme to a similar level to naproxen; also recorded: high levels of lipoxygenase (LOX) inhibition”. The pIC50 in assay [2] was 4.27; in assay [3] (dose-response assay), 4.51. In assay [3] (100 µM, read-out: 20S proteasome enzyme activity remaining), the remaining activity at 100 µM was 11%.
